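Dose response: 5 concentrations. Exposure: 48 h. Format: 96-well plates. Endpoint: linear interpolation; highest concentration if not reached. TGI denotes the concentration required for complete inhibition of growth.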
Legend:
Test in all cases: NCI-60 cell line screen, 48 h
OVCAR-8 ovarian = test system: OVCAR-8 ovarian
KM12 colon = test system: KM12 colon
OVCAR-5 ovarian = test system: OVCAR-5 ovarian
A498 renal = test system: A498 renal
CAKI-1 renal = test system: CAKI-1 renal
UO-31 renal = test system: UO-31 renal
HOP-62 NSCLC = test system: HOP-62 NSCLC
SW-620 colon = test system: SW-620 colon
RPMI-8226 leukemia = test system: RPMI-8226 leukemia
NCI-H226 lung = test system: NCI-H226 lung

| SMILES | TGI (OVCAR-8 ovarian) [µM] | TGI (KM12 colon) [µM] | TGI (OVCAR-5 ovarian) [µM] | TGI (A498 renal) [µM] | TGI (CAKI-1 renal) [µM] | TGI (UO-31 renal) [µM] | TGI (HOP-62 NSCLC) [µM] | TGI (SW-620 colon) [µM] | TGI (RPMI-8226 leukemia) [µM] | TGI (NCI-H226 lung) [µM] |
| --- | --- | --- | --- | --- | --- | --- | --- | --- | --- | --- |
| CCCc1ccc(OCC(=O)N/N=C/c2c(-c3ccccc3)[nH]c3ccccc23)cc1 | 53.4 | 38.5 | 58.6 | 31.8 | > 100 | > 100 | 37.8 | > 100 | 30.7 | 40.5 |
| CC(O)=NC(Cc1ccc2ccccc2c1)C(O)=NC(Cc1ccc(Cl)cc1)C(O)=NC(Cc1c[nH]c2ccccc12)C(O)=NC(CO)C(O)=NC(Cc1ccc(O)cc1)C(O)=NC(CCCN=C(N)N)C(O)=NC(CC(C)C)C(O)=NC(CCCN=C(N)N)C(=O)N1CCCC1C(O)=NC(C)C(=N)O (centres undefined) | > 100 | > 100 | > 100 | > 100 | > 100 | 63.1 | > 100 | > 100 | > 100 | 80.7 |
| CCOC(=O)[C@H]1C[C@]23CN(C(=O)OC(C)(C)C)CC[C@H]2CCC2(SCCCS2)[C@@H]3N1C | > 100 | > 100 | > 100 | > 100 | > 100 | > 100 | > 100 | > 100 | 54.4 | > 100 |
| C[n+]1c(-c2ccc(/C=N\NC(=O)c3ccc(C(=O)N/N=C/c4ccc(-c5cn6ccsc6[n+]5C)cc4)cc3)cc2)cn2ccsc21 | 40.8 | 58.2 | 36.3 | 33 | 41 | 32.3 | 35.1 | 40 | 55 | 44.1 |
| CS(=O)(=O)OCc1c(O)c2c(c(O)c1COS(C)(=O)=O)C(=O)C=CC2=O | > 100 | > 100 | > 100 | > 100 | > 100 | > 100 | > 100 | > 100 | > 100 | > 100 |
| C=C1C(=O)OC2/C=C(\C)CC(O)/C=C(/CO)CC(OC(=O)/C(C)=C/C)C12 (centres undefined) | 122 | 229 | 297 | 58.4 | 238 | 439 | 246 | 50.3 | 17.4 | 91 |
| O=C(Nc1ccc(F)cc1)c1cc2ccc(O)cc2oc1=Nc1ccccc1F | 36.7 | > 100 | > 100 | > 100 | > 100 | – | > 100 | > 100 | > 100 | – |
| CC[N+](CC)(CC)/C(=N/S(=O)(=O)c1cc(C)c(Cl)cc1S)[N-]S(=O)(=O)c1ccc(Cl)cc1 | > 100 | > 100 | > 100 | > 100 | > 100 | > 100 | > 100 | > 100 | > 100 | > 100 |
| C[C@H](O)C(=O)SC[C@H](NC(=O)CC[C@@H](N)C(=O)O)C(=O)NCC(=O)O | > 100 | > 100 | > 100 | – | > 100 | > 100 | > 100 | > 100 | > 100 | > 100 |
| O=C(CCO)OCCCCCC/C=C\CCCCCC/C=C\CCCCCCCCOC(=O)CCO | 36.3 | 46 | 32.3 | 50 | 39.3 | 32.6 | 36.1 | 80.4 | – | – |
| CC(C)Cc1cccc(C(C)C)c1NC(=O)CCC(=O)N/N=C1\C(=N/NC(=O)CCC(=O)Nc2c(C(C)C)cccc2C(C)C)C(c2ccc3c(c2)OCO3)Oc2ccccc21 (centres undefined) | > 100 | > 100 | > 100 | > 100 | > 100 | > 100 | > 100 | > 100 | > 100 | > 100 |
| Cc1ccc(S(=O)(=O)NCCSS(=O)(=O)c2ccc(C)cc2)cc1 | > 100 | 85.8 | – | 67.2 | – | 61.7 | – | 46.5 | – | 49.6 |
| OC1(c2ccc3ccccc3c2)c2ccc3ccccc3c2C2=NCCN21 (centres undefined) | 82.2 | > 100 | > 100 | > 100 | > 100 | > 100 | 47.3 | > 100 | > 100 | – |
| O=c1cc(-c2nc3ccccc3[nH]2)[nH]c2nc(-c3nc4ccccc4[nH]3)cc(-c3ccc(Cl)cc3)c12 | > 100 | 64.4 | 54.3 | – | 76 | 33 | 54.7 | 54.1 | 44 | 49.2 |
